# Results taken from ChEMBL document CHEMBL3885861, “Open TG-GATES”.
# Species on record: Rattus norvegicus
# Test: Open TG-GATES - Regimen: Single
# Format: toxicity, organism-based, Sprague-Dawley
# Set-up: regimen Single, gender Male, age 6 weeks
# Conditions: in vivo, po, 15 mg/kg, route gavage, dose level Low; for APTT / Bas / Eos / Fbg / Hb / Ht / Lym / MCH / MCHC / MCV / Mono / Neu / PT / Plat / RBC / Ret / WBC: tissue Blood; for KIDNEY_L / KIDNEY_R / KIDNEY_TOTAL: tissue Kidney; for LIVER: tissue Liver; for A/G / ALP / ALT / AST / BUN / CRE / Ca / Cl / DBIL / GLC / IP / K / LDH / Na / PL / RALB / TBIL / TC / TG / TP / gamma-GTP: tissue Plasma
smiles,measurement,setting,value
Nc1nc(N)c2nc(-c3ccccc3)c(N)nc2n1,TERMINAL_BW,3 h,213.1 g
same,APTT,3 h,16.6 s
same,Bas,3 h,0%
same,Eos,3 h,1%
same,Fbg,3 h,307 mg/dL
same,Hb,3 h,14.2 g/dL
same,Ht,3 h,42.9%
same,Lym,3 h,78.2%
same,MCH,3 h,21.5 pg
same,MCHC,3 h,33%
same,MCV,3 h,65.1 fL
same,Mono,3 h,3.4%
same,Neu,3 h,17%
same,PT,3 h,14.3 s
same,Plat,3 h,129.9 x10_4/uL
same,RBC,3 h,659.2 x10_4/ul
same,Ret,3 h,7.7%
same,WBC,3 h,86.3 x10_2/uL
same,KIDNEY_L,3 h,1 g
same,KIDNEY_R,3 h,1 g
same,KIDNEY_TOTAL,3 h,2 g
same,LIVER,3 h,9.6 g
same,A/G,3 h,0.9
same,ALP,3 h,1340.6 IU/L
same,ALT,3 h,39.8 IU/L
same,AST,3 h,73.2 IU/L
same,BUN,3 h,10.4 mg/dL
same,CRE,3 h,0.2 mg/dL
same,Ca,3 h,11 mg/dL
same,Cl,3 h,105.2 meq/L
same,DBIL,3 h,0.008 mg/dL
same,GLC,3 h,170.2 mg/dL
same,IP,3 h,8.6 mg/dL
same,K,3 h,4.6 meq/L
same,LDH,3 h,56.2 IU/L
same,Na,3 h,141.2 meq/L
same,PL,3 h,144 mg/dL
same,RALB,3 h,2.7 g/dL
same,TBIL,3 h,0.05 mg/dL
same,TC,3 h,76.2 mg/dL
same,TG,3 h,81.4 mg/dL
same,TP,3 h,5.6 g/dL
same,gamma-GTP,3 h,1.2 IU/L
same,TERMINAL_BW,6 h,211.9 g
same,APTT,6 h,16.3 s
same,Bas,6 h,0.4%
same,Eos,6 h,1%
same,Fbg,6 h,292.4 mg/dL
same,Hb,6 h,13.8 g/dL
same,Ht,6 h,41.6%
same,Lym,6 h,76%
same,MCH,6 h,21.2 pg
same,MCHC,6 h,33.2%
same,MCV,6 h,63.9 fL
same,Mono,6 h,2.6%
same,Neu,6 h,19.6%
same,PT,6 h,14.3 s
same,Plat,6 h,117.9 x10_4/uL
same,RBC,6 h,651.8 x10_4/ul
same,Ret,6 h,7.8%
same,WBC,6 h,88.3 x10_2/uL
same,KIDNEY_L,6 h,1 g
same,KIDNEY_R,6 h,1 g
same,KIDNEY_TOTAL,6 h,1.9 g
same,LIVER,6 h,9 g
same,A/G,6 h,1
same,ALP,6 h,1353.4 IU/L
same,ALT,6 h,38.2 IU/L
same,AST,6 h,72.8 IU/L
same,BUN,6 h,9.2 mg/dL
same,CRE,6 h,0.2 mg/dL
same,Ca,6 h,10.8 mg/dL
same,Cl,6 h,105.6 meq/L
same,DBIL,6 h,0.008 mg/dL
same,GLC,6 h,167.8 mg/dL
same,IP,6 h,9.9 mg/dL
same,K,6 h,4.4 meq/L
same,LDH,6 h,56.4 IU/L
same,Na,6 h,142.6 meq/L
same,PL,6 h,138.4 mg/dL
same,RALB,6 h,2.6 g/dL
same,TBIL,6 h,0.062 mg/dL
same,TC,6 h,77 mg/dL
same,TG,6 h,49.8 mg/dL
same,TP,6 h,5.4 g/dL
same,gamma-GTP,6 h,1.2 IU/L
same,TERMINAL_BW,9 h,206.1 g
same,APTT,9 h,16.7 s
same,Bas,9 h,0%
same,Eos,9 h,0.8%
same,Fbg,9 h,322.4 mg/dL
same,Hb,9 h,14 g/dL
same,Ht,9 h,42.2%
same,Lym,9 h,77.6%
same,MCH,9 h,21.2 pg
same,MCHC,9 h,33.2%
same,MCV,9 h,64 fL
same,Mono,9 h,2.4%
same,Neu,9 h,18.2%
same,PT,9 h,13.9 s
same,Plat,9 h,128.2 x10_4/uL
same,RBC,9 h,659.6 x10_4/ul
same,Ret,9 h,7.5%
same,WBC,9 h,82.6 x10_2/uL
same,KIDNEY_L,9 h,1 g
same,KIDNEY_R,9 h,1 g
same,KIDNEY_TOTAL,9 h,2 g
same,LIVER,9 h,8.3 g
same,A/G,9 h,0.9
same,ALP,9 h,1426 IU/L
same,ALT,9 h,39 IU/L
same,AST,9 h,67.4 IU/L
same,BUN,9 h,9.2 mg/dL
same,CRE,9 h,0.2 mg/dL
same,Ca,9 h,10.8 mg/dL
same,Cl,9 h,106.2 meq/L
same,DBIL,9 h,0.006 mg/dL
same,GLC,9 h,163 mg/dL
same,IP,9 h,9.9 mg/dL
same,K,9 h,4.1 meq/L
same,LDH,9 h,47.8 IU/L
same,Na,9 h,143 meq/L
same,PL,9 h,144 mg/dL
same,RALB,9 h,2.7 g/dL
same,TBIL,9 h,0.056 mg/dL
same,TC,9 h,84.8 mg/dL
same,TG,9 h,41.4 mg/dL
same,TP,9 h,5.5 g/dL
same,gamma-GTP,9 h,1.2 IU/L
same,TERMINAL_BW,24 h,226.6 g
same,APTT,24 h,19 s
same,Bas,24 h,0%
same,Eos,24 h,1%
same,Fbg,24 h,289.6 mg/dL
same,Hb,24 h,14 g/dL
same,Ht,24 h,41.7%
same,Lym,24 h,83.6%
same,MCH,24 h,21.1 pg
same,MCHC,24 h,33.6%
same,MCV,24 h,62.7 fL
same,Mono,24 h,1.6%
same,Neu,24 h,12.8%
same,PT,24 h,14 s
same,Plat,24 h,121.6 x10_4/uL
same,RBC,24 h,664.8 x10_4/ul
same,Ret,24 h,6.2%
same,WBC,24 h,84.7 x10_2/uL
same,KIDNEY_L,24 h,1 g
same,KIDNEY_R,24 h,1 g
same,KIDNEY_TOTAL,24 h,2 g
same,LIVER,24 h,10.5 g
same,A/G,24 h,0.9
same,ALP,24 h,1713.2 IU/L
same,ALT,24 h,44.8 IU/L
same,AST,24 h,67.4 IU/L
same,BUN,24 h,15.2 mg/dL
same,CRE,24 h,0.2 mg/dL
same,Ca,24 h,11 mg/dL
same,Cl,24 h,105.4 meq/L
same,DBIL,24 h,0.012 mg/dL
same,GLC,24 h,183.2 mg/dL
same,IP,24 h,8.3 mg/dL
same,K,24 h,4.1 meq/L
same,LDH,24 h,58.4 IU/L
same,Na,24 h,143.6 meq/L
same,PL,24 h,153.2 mg/dL
same,RALB,24 h,2.7 g/dL
same,TBIL,24 h,0.044 mg/dL
same,TC,24 h,79.4 mg/dL
same,TG,24 h,87.8 mg/dL
same,TP,24 h,5.4 g/dL
same,gamma-GTP,24 h,1 IU/L
